As usually defined, the pIC50 is −log10 of the IC50, conventionally taken in molar units.

Structures are written as SMILES. pIC50: −log10 of the molar value.

The experiment relates to Hepatitis B virus. Briefly: Antiviral activity against HBV in human HepDE19 cells producing HBV cccDNA assessed as reduction in cccDNA production by measuring HBeAg level incubated for 24 hrs by ELISA. The class given is functional, organism-based. The conditions noted are these: HepDE19, 24 h. For orientation: ELISA stands for enzyme-linked immunosorbent assay.

For `O=C(O)COc1cc(-c2cc(=O)c3cccc(Cl)c3o2)ccc1C(F)(F)F`, the pIC50 is 6.49.
The same measure for `COc1c(-c2cc(=O)c3cccc(Cl)c3o2)ccc(Br)c1OC1CC(C(=O)O)C1` (stereo unspecified): 6.72; for `O=C(O)CCOc1cc(-c2cc(=O)c3cccc(Cl)c3o2)c(F)cc1Br`: 6.88.
The same measure for `COc1cc(OC)c(-c2cc(=O)c3cccc(Cl)c3o2)cc1OCCOC1CC(C(=O)O)C1` (stereo unspecified): 6.72; for `CCOc1cc(Br)c(OCCC(=O)O)cc1-c1cc(=O)c2cccc(Cl)c2o1`: 6.96.
Next, `Cc1ccc(-c2cc(=O)c3cccc(Cl)c3o2)cc1O[C@H]1C[C@@H](C(=O)O)C1`: 6.31.

Source of the values: ChEMBL document CHEMBL4680364, “Substituted Chromen-4-one Derivatives for Treating Hepatitis B Virus Infection” (ACS Med Chem Lett, 2021).
